Measured values from the supplement of paper PMC10307832.

What was measured:
Experiment in all cases: relative viability (nuclei count vs DMSO), 5 days (fraction); higher = more cells survive
AZD8055 + Alpelisib = compound: COc1ccc(-c2ccc3c(N4CCOC[C@@H]4C)nc(N4CCOC[C@@H]4C)nc3n2)cc1CO [AZD8055] + Cc1nc(NC(=O)N2CCC[C@H]2C(N)=O)sc1-c1ccnc(C(C)(C)C(F)(F)F)c1 [Alpelisib] (partner 2 µM)
Procedure, shortened: (§1)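 Lung cancer cell lines, seeded in 1536-well plates, were treated the following day by pin tool with a single drug or with five library-drug doses (not always all listed) in √10 steps on top of a fixed anchor-drug dose. Cells were fixed and nuclei stained in one step after 5 days, and nuclei were counted. Relative viability is the nuclei count for treated wells divided by that for vehicle wells, reported as medians of duplicate plates.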

AZD8055 + Tozasertib = compound: COc1ccc(-c2ccc3c(N4CCOC[C@@H]4C)nc(N4CCOC[C@@H]4C)nc3n2)cc1CO [AZD8055] + Cc1cc(Nc2cc(N3CCN(C)CC3)nc(Sc3ccc(NC(=O)C4CC4)cc3)n2)n[nH]1 [Tozasertib] (partner 0.1 µM)
Procedure, shortened: as §1

AZD8055 + Luminespib = compound: COc1ccc(-c2ccc3c(N4CCOC[C@@H]4C)nc(N4CCOC[C@@H]4C)nc3n2)cc1CO [AZD8055] + CCNC(=O)c1noc(-c2cc(C(C)C)c(O)cc2O)c1-c1ccc(CN2CCOCC2)cc1 [Luminespib] (partner 0.01 µM)
Procedure, shortened: as §1

AZD8055 + Dasatinib = compound: COc1ccc(-c2ccc3c(N4CCOC[C@@H]4C)nc(N4CCOC[C@@H]4C)nc3n2)cc1CO [AZD8055] + Cc1nc(Nc2ncc(C(=O)Nc3c(C)cccc3Cl)s2)cc(N2CCN(CCO)CC2)n1 [Dasatinib] (partner 0.075 µM)
Procedure, shortened: as §1

Row | Cell Line | relative viability (AZD8055 + Alpelisib; first compound 0.01 µM) | relative viability (AZD8055 + Alpelisib; first compound 0.03162 µM) | relative viability (AZD8055 + Alpelisib; first compound 0.1 µM) | relative viability (AZD8055 + Alpelisib; first compound 0.3162 µM) | relative viability (AZD8055 + Alpelisib; first compound 1 µM) | relative viability (AZD8055 + Tozasertib; first compound 0.01 µM) | relative viability (AZD8055 + Tozasertib; first compound 0.03162 µM) | relative viability (AZD8055 + Tozasertib; first compound 0.1 µM) | relative viability (AZD8055 + Tozasertib; first compound 0.3162 µM) | relative viability (AZD8055 + Tozasertib; first compound 1 µM) | relative viability (AZD8055 + Luminespib; first compound 0.01 µM) | relative viability (AZD8055 + Luminespib; first compound 0.03162 µM) | relative viability (AZD8055 + Luminespib; first compound 0.1 µM) | relative viability (AZD8055 + Luminespib; first compound 0.3162 µM) | relative viability (AZD8055 + Luminespib; first compound 1 µM) | relative viability (AZD8055 + Dasatinib; first compound 0.01 µM) | relative viability (AZD8055 + Dasatinib; first compound 0.03162 µM) | relative viability (AZD8055 + Dasatinib; first compound 0.1 µM) | relative viability (AZD8055 + Dasatinib; first compound 0.3162 µM) | relative viability (AZD8055 + Dasatinib; first compound 1 µM)
1 | NCI-H2126 | 0.75 | 0.655 | 0.601 | 0.382 | 0.371 | 0.844 | 0.829 | 0.687 | 0.427 | 0.375 | 0.921 | 0.884 | 0.484 | 0.308 | 0.312 | 0.535 | 0.5 | 0.464 | 0.281 | 0.316
2 | NCI-H2170 | 0.691 | 0.623 | 0.386 | 0.288 | 0.252 | 0.794 | 0.732 | 0.485 | 0.349 | 0.239 | 0.633 | 0.715 | 0.403 | 0.233 | 0.165 | 0.557 | 0.558 | 0.333 | 0.205 | 0.197
3 | NCI-H2228 | 0.621 | 0.297 | 0.222 | 0.19 | 0.272 | 0.222 | 0.296 | 0.155 | 0.143 | 0.158 | 0.137 | 0.11 | 0.104 | 0.15 | 0.144 | 0.429 | 0.358 | 0.136 | 0.144 | 0.171
4 | NCI-H2347 | 1.19 | 0.934 | 0.674 | 0.467 | 0.413 | 0.543 | 0.515 | 0.519 | 0.305 | 0.252 | 0.295 | 0.251 | 0.367 | 0.282 | 0.222 | 0.307 | 0.29 | 0.252 | 0.235 | 0.213
5 | NCI-H2405 | 0.757 | 0.655 | 0.442 | 0.293 | 0.291 | 0.812 | 0.815 | 0.676 | 0.448 | 0.344 | 0.757 | 0.564 | 0.536 | 0.289 | 0.279 | 0.225 | 0.204 | 0.215 | 0.188 | 0.183
6 | NCI-H3122 | 0.737 | 0.541 | 0.34 | 0.309 | 0.251 | 0.465 | 0.375 | 0.315 | 0.178 | 0.132 | 0.0869 | 0.101 | 0.114 | 0.0794 | 0.0854 | 0.653 | 0.684 | 0.783 | 0.223 | 0.292
7 | PC-3 [JPC-3] | 1.17 | 1.06 | 0.972 | 0.555 | 0.47 | 0.864 | 0.993 | 0.978 | 0.614 | 0.431 | 0.717 | 0.565 | 0.693 | 0.469 | 0.332 | 1.01 | 0.937 | 0.946 | 0.641 | 0.444
8 | PC-14 | 0.977 | 0.913 | 0.795 | 0.316 | 0.155 | 0.834 | 0.762 | 0.535 | 0.109 | 0.0948 | 0.162 | 0.17 | 0.206 | 0.187 | 0.212 | 0.319 | 0.309 | 0.199 | 0.0815 | 0.0639
9 | RERF-LC-KJ | 0.77 | 0.576 | 0.552 | 0.4 | 0.442 | 0.519 | 0.556 | 0.421 | 0.333 | 0.299 | 1.19 | 1.14 | 0.853 | 0.475 | 0.473 | 0.946 | 0.753 | 0.607 | 0.284 | 0.343
10 | SK-LU-1 | 1.03 | 0.643 | 0.384 | 0.687 | 0.342 | 0.311 | 0.333 | 0.287 | 0.217 | 0.213 | 0.205 | 0.185 | 0.159 | 0.145 | 0.154 | 0.163 | 0.161 | 0.136 | 0.113 | 0.121
11 | SK-MES-1 | 0.856 | 0.64 | 0.542 | 0.303 | 0.269 | 0.904 | 0.837 | 0.625 | 0.434 | 0.274 | 0.371 | 0.503 | 0.185 | 0.182 | 0.213 | 0.404 | 0.337 | 0.256 | 0.213 | 0.179
12 | SW 1573 | 0.707 | 0.51 | 0.55 | 0.301 | 0.211 | 0.174 | 0.229 | 0.241 | 0.155 | 0.135 | 0.121 | 0.256 | 0.167 | 0.103 | 0.187 | 0.583 | 0.534 | 0.262 | 0.114 | 0.103
13 | UMC-11 | 1.06 | 0.737 | 0.549 | 0.232 | 0.22 | 0.196 | 0.224 | 0.208 | 0.2 | 0.211 | 1 | 0.659 | 0.477 | 0.229 | 0.268 | 0.521 | 0.381 | 0.302 | 0.252 | 0.224
